Results published in patent publication US20210347823A1, “METHODS OF PHYSICOCHEMICAL-GUIDED PEPTIDE DESIGN AND NOVEL PEPTIDES DERIVED THEREFROM” (Massachusetts Institute of Technology, priority 2018, published 2021).

How the values were obtained:
[1] = system: HEK293 human embryonic kidney cells; test: Cytotoxicity assay (MTS); type: cell-based; settings: for toxicity at 64 μmol L^−1: assay not stated; for Cytotoxicity: HEK293, 48 h, MTS, peptides 0-64 μmol L^−1
Description: FIGS. 7A-7B. Cytotoxicity of engineered peptides. FIG. 7A. Schematic of the experimental design for cytotoxicity assays of Pol-CP—NH2 and derivatives against HEK293 human embryonic kidney cells. Briefly, cells were cultured in DMEM medium supplemented with FBS and antibiotics at 37° C. and 5% CO2. FIG. 7B. Results obtained by seeding HEK293 50,000 cells and incubating with peptides' solution (0-64 μmol L^−1) at 37° C. for 48 h. Cell viability was measured by MTS assay. All experiments were performed in triplicate.
Cytotoxicity assays. Human embryonic kidney 293 (HEK 293) cells were cultured in Dulbecco's Modified Eagle Medium (DMEM) supplemented with 10% Fetal Bovine Serum (FBS) and 1% penicillin-streptomycin at 37° C. in 5% CO2. The day before treatment, 50,000 HEK 293 cells were seeded into each well in 96-well plates. The peptides were added at concentrations ranging from 0 to 64 ? mol L^−1 and 48 h after exposure, cell viability was measured by means of MTS (dimethylthiazol-carboxymethoxyphenyl-sulfophenyl-tetrazolium) assay. Experiments were performed in triplicate for each condition.

[2] = Mouse body weight / toxicity in the skin infection model; type: in vivo, mice; settings: for mouse body weight: peptides used at 64 mol L^−1 (so in the source), compared to untreated mice
Description: FIGS. 8A-8D. In vivo activity of Pol-CP—NH2 and its analogs. FIG. 8A. Schematic of the experimental design. Briefly, the back of mice was shaved and an abrasion was generated to damage the stratum corneum and the upper layer of the epidermis. Subsequently, an aliquot of 50 μL containing 5×10^7 CFU of P. aeruginosa in PBS was inoculated over each defined area. One day after the infection, peptides (4 μmol L^−1) were administered to the infected area. Animals were euthanized and the area of scarified skin was excised two and four days post-infection (FIG. 8B) homogenized using a bead beater for 20 minutes (25 Hz), and serially diluted for CFU quantification (****p<0.0001). FIG. 8C. Mouse body weight measurements throughout the experiment normalized by the body weight of non-infected mice. […] FIG. 8D. Longer experiment (four days) using a higher concentration (64 μmol L^−1) of peptides Pol-CP—NH2 and [Lys]'-Pol-CP—NH2 (****p<0.0001).
Scarification Skin Infection Mouse Model. P. aeruginosa strain PA14 was grown to an optical density at 600 nm (OD600) of 1 in tryptic soy broth (TSB) medium. Subsequently cells were washed twice with sterile PBS (pH 7.4, 13,000 rpm for 1 minute), and resuspended to a final concentration of 5×10^7 CFU/50 ? L. To generate skin infection, female CD-1 mice (6 weeks old) were anesthetized with isoflurane and had their backs shaved. A superficial linear skin abrasion was made with a needle in order to damage the stratum corneum and upper-layer of the epidermis. Five minutes after wounding, an aliquot of 50 ? L containing 5×10^7 CFU of bacteria in PBS was inoculated over each defined area containing the scratch with a pipette tip. One day after the infection, peptides were administered to the infected area. Animals were euthanized and the area of scarified skin was excised two and four days post-infection, homogenized using a bead beater for 20 minutes (25 Hz), and serially diluted for CFU quantification. Two independent experiments were performed with 4 mice per group in each condition. Statistical significance was assessed using a one-way ANOVA.

[3] = system: P. aeruginosa; test: MIC against P. aeruginosa (strain not given); type: cell-based, Pseudomonas aeruginosa
Description: FIGS. 2A-2E. Design, physicochemical features and activity of Pol-CP—NH2 and Ala-scan analogs. FIG. 2A. Theoretical physicochemical properties of interest of the wild type and Ala-scan analogs, where H denotes hydrophobicity, μH is the hydrophobic moment, q represents the net charge and P/N is the ratio of polar/non-polar residues in the sequence. Top to bottom, left to right the sequences correspond to SEQ ID NOs: 1-13. FIG. 2B. Schematic of the in vitro biological activity experimental design. Briefly, 10^4 bacterial cells and serially diluted peptides (0-128 μmol L^−1) were added to a 96-well plate and incubated at 37° C. One day after the exposure, the solution in each well was measured in a microplate reader (600 nm) to check inhibition of bacteria compared to the untreated controls and presented as heat maps of antimicrobial activities (μmol L^−1) against four bacteria strains: E. coli strain BL21, S. aureus strain ATCC12600 and P. aeruginosa strains PA01, and PA14. Assays were performed in triplicates. FIG. 2C. Graph correlating MIC (μmol L^−1) averages vs H and (FIG. 2D) MIC (μmol L^−1) averages vs μH, where dots […] the dashed line show peptides with higher activity compared to the wild type, in which one can observe ranges of optimal activity in determined intervals of H and μH values. FIG. 2E. […]

With “H-ILGTILKLLKSL-NH2 [Peptide 16, ILGTILKLLKSL-NH2]” the “toxicity at 64 μmol L^−1” value [1] was “toxic”, the Cytotoxicity [1] was 16.0 µmol/L and the Cytotoxicity ([1]; listed as [Lys]^7-Pol-CP—NH2) was 16 µmol/L. For the same substance, the “cytotoxic concentration relative to MIC against P. aeruginosa” value ([1]; HEK293 cytotoxicity vs MIC) was “two- to four-fold higher”, the mouse body weight [2] was “did not change significantly” and the “toxicity to mice” value ([2]; single dose) was “non-toxic”. The “activity against P. aeruginosa” value ([3]; in vitro, selection of peptides for the mouse model) was “high activity”.
In the case of “H-ILGTILGLLKSL-NH2 [WT, ILGTILGLLKSL-NH2, reference compound]”, the “toxicity at 64 μmol L^−1” value [1] is reported as “toxic”, the Cytotoxicity [1] is reported as 32.0 µmol/L and the Cytotoxicity ([1]; listed as wild-type peptide) is reported as 32 µmol/L. For the same substance, the mouse body weight [2] was “did not change significantly” and the “MIC against P. aeruginosa” value ([3]; strain not stated) was 64 µM.
